What was measured:
Assay type in all cases: cell-based
[1] = system: SARS-CoV-2 pseudovirus Omicron (B.1.1529) into ACE2h cells
[2] = system: SARS-CoV-2 Delta (B.1.617.2) pseudovirus into ACE2h cells; test: microbe, parasite or virus in culture
[3] = system: ACE2 high expressing-HEK293T cells (ACE2h cells); details: 24 h, even at 100 μM
Method: For cytotoxicity assay, ACE2^h cells were seeded into 96-well plates at a density of 1×10^4 cells per well and then treated with different concentrations of OA (0.01, 0.1, 1, 10, 100 μM) for 24 h, then 10 μL of Cell Counting Kit (IV08-500, Invigentech, USA) solution was added to each well followed by 2 h of incubation. The relative cell viability was assessed by the detection of the absorbance at 450 nm using a microplate reader (Infinite F50, Thermo Fisher, China). The survival rate of ACE2^h cells was calculated as the following formula: Survival rate = [(OD Treated –OD Blank) / (OD Control−OD Blank)] × 100%.

## O=C(O)C(=O)O [OA, Oxalic acid]
[1]
  luciferase activity compared to the control: significantly reduced
[2]
  expression of green fluorescent protein in ACE2h cells: significantly reduced
[2]; Pseudovirus, read-out: IC50, inhibition of entry of Delta pseudovirus into ACE2h cells
  IC50: 26 µM
[3]
  cytotoxic effect (cell viability): no significant cytotoxic effect

From publication PMC10194883 (PLOS ONE, 2023)
